Assay results published in ChEMBL document CHEMBL1201862, “PubChem BioAssay data set” (2004).
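Tested at 5 concentrations; 48 h exposure; 96-well plates; endpoints linearly interpolated, else capped at highest concentration. Here, GI50 denotes the concentration required for 50% inhibition of growth.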 The source made the active and inactive calls. Rule as the data show it: active = GI50 up to about 1.1 µM and inactive = higher.

How the values were obtained:
Assay in all cases: inhibition of tumour cell growth, NCI panel, 48 h
T47D = test system: T47D
CCRF-CEM = test system: CCRF-CEM
EKVX = test system: EKVX
Hs-578T = test system: Hs-578T
HOP-62 = test system: HOP-62
CAKI-1 = test system: CAKI-1
K562 = test system: K562
MDA-N = test system: MDA-N
A498 = test system: A498
MDA-MB-231 = test system: MDA-MB-231
SF-268 = test system: SF-268
SF-295 = test system: SF-295
SR = test system: SR
NCI-H23 = test system: NCI-H23
MDA-MB-435 = test system: MDA-MB-435
OVCAR-5 = test system: OVCAR-5
RXF 393 = test system: RXF 393
A549 = test system: A549
NCI-H226 = test system: NCI-H226
MCF7 = test system: MCF7
NCI-H522 = test system: NCI-H522
NCI/ADR-RES = test system: NCI/ADR-RES
TK-10 = test system: TK-10
HL-60 = test system: HL-60
Malme-3M = test system: Malme-3M
ACHN = test system: ACHN
786-0 = test system: 786-0
LOX IMVI = test system: LOX IMVI
HCT-116 = test system: HCT-116
OVCAR-3 = test system: OVCAR-3
HCC 2998 = test system: HCC 2998
SK-MEL-28 = test system: SK-MEL-28
UO-31 = test system: UO-31
KM12 = test system: KM12
BT-549 = test system: BT-549
UACC-62 = test system: UACC-62
UACC-257 = test system: UACC-257
PC-3 = test system: PC-3
DU-145 = test system: DU-145
COLO 205 = test system: COLO 205
OVCAR-4 = test system: OVCAR-4
SN12C = test system: SN12C
HT-29 = test system: HT-29
SW-620 = test system: SW-620
RPMI-8226 = test system: RPMI-8226
NCI-H460 = test system: NCI-H460
HOP-92 = test system: HOP-92
IGROV-1 = test system: IGROV-1
OVCAR-8 = test system: OVCAR-8
HCT-15 = test system: HCT-15
SNB-75 = test system: SNB-75
U-251 = test system: U-251
SK-MEL-2 = test system: SK-MEL-2
SK-MEL-5 = test system: SK-MEL-5
SF-539 = test system: SF-539
MOLT-4 = test system: MOLT-4
SNB-19 = test system: SNB-19
M14 = test system: M14
SK-OV-3 = test system: SK-OV-3

## CC(C)(CO)CNc1cc(Cl)nc(N)n1
T47D
  GI50: 43.2 µM (inactive)
CCRF-CEM
  GI50: > 100 µM (inactive)
EKVX
  GI50: > 100 µM (inactive)
Hs-578T
  GI50: > 100 µM (inactive)
HOP-62
  GI50: > 100 µM (inactive)
CAKI-1
  GI50: > 100 µM (inactive)
K562
  GI50: > 100 µM (inactive)
MDA-N
  GI50: > 100 µM (inactive)
A498
  GI50: > 100 µM (inactive)
MDA-MB-231
  GI50: > 100 µM (inactive)
SF-268
  GI50: > 100 µM (inactive)
SF-295
  GI50: > 100 µM (inactive)
SR
  GI50: > 100 µM (inactive)
NCI-H23
  GI50: > 100 µM (inactive)
MDA-MB-435
  GI50: > 100 µM (inactive)
OVCAR-5
  GI50: > 100 µM (inactive)
RXF 393
  GI50: > 100 µM (inactive)
A549
  GI50: > 100 µM (inactive)
NCI-H226
  GI50: > 100 µM (inactive)
MCF7
  GI50: > 100 µM (inactive)
NCI-H522
  GI50: > 100 µM (inactive)
NCI/ADR-RES
  GI50: > 100 µM (inactive)
TK-10
  GI50: > 100 µM (inactive)
HL-60
  GI50: > 100 µM (inactive)
Malme-3M
  GI50: > 100 µM (inactive)
ACHN
  GI50: > 100 µM (inactive)
786-0
  GI50: > 100 µM (inactive)
LOX IMVI
  GI50: > 100 µM (inactive)
HCT-116
  GI50: > 100 µM (inactive)
OVCAR-3
  GI50: > 100 µM (inactive)
HCC 2998
  GI50: > 100 µM (inactive)
SK-MEL-28
  GI50: > 100 µM (inactive)
UO-31
  GI50: > 100 µM (inactive)
KM12
  GI50: > 100 µM (inactive)
BT-549
  GI50: > 100 µM (inactive)
UACC-62
  GI50: > 100 µM (inactive)
UACC-257
  GI50: > 100 µM (inactive)
PC-3
  GI50: > 100 µM (inactive)
DU-145
  GI50: > 100 µM (inactive)
COLO 205
  GI50: > 100 µM (inactive)
OVCAR-4
  GI50: > 100 µM (inactive)
SN12C
  GI50: > 100 µM (inactive)
HT-29
  GI50: > 100 µM (inactive)
SW-620
  GI50: > 100 µM (inactive)
RPMI-8226
  GI50: > 100 µM (inactive)
NCI-H460
  GI50: > 100 µM (inactive)
HOP-92
  GI50: > 100 µM (inactive)
IGROV-1
  GI50: > 100 µM (inactive)
OVCAR-8
  GI50: > 100 µM (inactive)
HCT-15
  GI50: > 100 µM
SNB-75
  GI50: > 100 µM (inactive)
U-251
  GI50: > 100 µM (inactive)
SK-MEL-2
  GI50: > 100 µM (inactive)
SK-MEL-5
  GI50: > 100 µM (inactive)
SF-539
  GI50: > 100 µM (inactive)
MOLT-4
  GI50: > 100 µM (inactive)

## CCOC1OC(=O)c2cc3ccc4c(c3c(-c3ccc5c(c3)OCO5)c21)OCO4 (stereo not given)
T47D
  GI50: 9.79 µM (inactive)
CCRF-CEM
  GI50: 9.33 µM (inactive)
EKVX
  GI50: 3.54 µM (inactive)
Hs-578T
  GI50: 3.2 µM (inactive)
HOP-62
  GI50: 4.63 µM (inactive)
CAKI-1
  GI50: 4.48 µM (inactive)
K562
  GI50: 7.6 µM (inactive)
MDA-N
  GI50: 1.9 µM (inactive)
SNB-19
  GI50: 8.95 µM (inactive)
A498
  GI50: 9.4 µM (inactive)
MDA-MB-231
  GI50: 17.4 µM (inactive)
SF-268
  GI50: 5.46 µM (inactive)
SF-295
  GI50: 2.27 µM (inactive)
SR
  GI50: 2.04 µM (inactive)
NCI-H23
  GI50: 3.72 µM (inactive)
MDA-MB-435
  GI50: 3.04 µM (inactive)
OVCAR-5
  GI50: 14.5 µM (inactive)
RXF 393
  GI50: 5.79 µM (inactive)
A549
  GI50: 3.08 µM (inactive)
NCI-H226
  GI50: 4.71 µM (inactive)
MCF7
  GI50: 9.57 µM (inactive)
NCI-H522
  GI50: 0.687 µM (active)
NCI/ADR-RES
  GI50: 5.13 µM (inactive)
TK-10
  GI50: 4.75 µM (inactive)
HL-60
  GI50: 9.91 µM (inactive)
Malme-3M
  GI50: > 100 µM (inactive)
ACHN
  GI50: 10.4 µM (inactive)
786-0
  GI50: 9.06 µM (inactive)
LOX IMVI
  GI50: 3.79 µM (inactive)
HCT-116
  GI50: 2.43 µM (inactive)
OVCAR-3
  GI50: 0.417 µM (active)
HCC 2998
  GI50: 2.26 µM (inactive)
SK-MEL-28
  GI50: 9.53 µM (inactive)
UO-31
  GI50: 22 µM (inactive)
KM12
  GI50: 4.58 µM (inactive)
BT-549
  GI50: 4.28 µM (inactive)
UACC-62
  GI50: 6.01 µM (inactive)
UACC-257
  GI50: 9.79 µM (inactive)
PC-3
  GI50: 10.1 µM (inactive)
DU-145
  GI50: 70.5 µM (inactive)
COLO 205
  GI50: 1.55 µM (inactive)
OVCAR-4
  GI50: 16.7 µM (inactive)
SN12C
  GI50: 10.9 µM (inactive)
HT-29
  GI50: 4.76 µM (inactive)
SW-620
  GI50: 6.04 µM (inactive)
M14
  GI50: 3.4 µM (inactive)
RPMI-8226
  GI50: 4.12 µM (inactive)
NCI-H460
  GI50: 3.56 µM (inactive)
HOP-92
  GI50: 96.8 µM (inactive)
IGROV-1
  GI50: 4.6 µM (inactive)
OVCAR-8
  GI50: 35.7 µM (inactive)
HCT-15
  GI50: 4.85 µM
SNB-75
  GI50: 1.08 µM (active)
U-251
  GI50: 5.68 µM (inactive)
SK-MEL-2
  GI50: 12.8 µM (inactive)
SK-OV-3
  GI50: 1.42 µM (inactive)
SK-MEL-5
  GI50: 2.72 µM (inactive)
SF-539
  GI50: 1.42 µM (inactive)
MOLT-4
  GI50: 6.05 µM (inactive)
